Legend:
Format in all cases: cell-based
[1] = tested on: E. coli ML308; assay: susceptibility of tetracycline susceptible strains (MIC), C5 esters; settings: E. coli ML308, susceptible strain, drug alone
[2] = tested on: E. faecalis 211 (Tet M); assay: MIC/MLC chart, analog with and without doxycycline
[3] = tested on: E. coli DI-299 (Tet A); assay: MIC/MLC chart, analog with and without doxycycline; set-up: key to growth/killing, Analog + Doxy / growth/killing, Doxy Control / growth/killing, Analog Control / growth in MIC/MLC chart: +=growth; 0=no growth (MIC); ↓=killing; ? =99.9% killing (MLC); □=no growth, but no microbiologic testing;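 note: bacterial growth inhibition and killing in broth, each agent tested alone or combined with doxycycline across two-fold serial dilutions, overnight incubation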
[4] = tested on: S. aureus 450; assay: susceptibility of tetracycline susceptible strains (MIC), C5 esters; settings: S. aureus 450, susceptible strain, drug alone
[5] = tested on: E. faecalis ATCC 9790; assay: as above; settings: E. faecalis ATCC 9790, susceptible strain, drug alone
[6] = Analog Control: analog alone .195 μg/ml
[7] = analog .195 μg/ml + doxycycline 1.56 μg/ml
[8] = analog .195 μg/ml + doxycycline 3.12 μg/ml
[9] = analog .195 μg/ml + doxycycline 6.25 μg/ml

CCC(=O)OC1C2C(=C(O)C3(O)C(=O)C(C(N)=O)=C(O)C(N(C)C)C13)C(=O)c1c(O)cccc1C2CSC1CCCC1 (centres unmarked) [Cmpd 5, 13-cyclopentylthio-5-proprionate-6-deoxy tetracycline]
+: growth in MIC/MLC chart [2, 6] | growth in MIC/MLC chart [2, 7] | growth in MIC/MLC chart [2, 8] | growth in MIC/MLC chart [2, 9] | growth in MIC/MLC chart ([3]; Analog Control: analog alone 1.56 μg/ml) | growth in MIC/MLC chart ([3]; Analog Control: analog alone 3.12 μg/ml) | growth in MIC/MLC chart ([3]; Analog Control: analog alone 6.25 μg/ml) | growth in MIC/MLC chart ([3]; Analog Control: analog alone 12.5 μg/ml) | growth in MIC/MLC chart ([3]; Analog Control: analog alone 25.0 μg/ml) | growth in MIC/MLC chart ([3]; Analog Control: analog alone 50.00 μg/ml) | growth in MIC/MLC chart [3, 6] | growth in MIC/MLC chart ([3]; Analog Control: analog alone .39 μg/ml) | growth in MIC/MLC chart ([3]; Analog Control: analog alone .78 μg/ml) | growth in MIC/MLC chart ([3]; analog 1.56 μg/ml + doxycycline 1.55 μg/ml) | growth in MIC/MLC chart ([3]; analog 1.56 μg/ml + doxycycline 3.1 μg/ml) | growth in MIC/MLC chart ([3]; analog 1.56 μg/ml + doxycycline 6.2 μg/ml) | growth in MIC/MLC chart ([3]; analog 3.12 μg/ml + doxycycline 1.53 μg/ml) | growth in MIC/MLC chart ([3]; analog 3.12 μg/ml + doxycycline 3.05 μg/ml) | growth in MIC/MLC chart ([3]; analog 3.12 μg/ml + doxycycline 6.1 μg/ml) | growth in MIC/MLC chart ([3]; analog 6.25 μg/ml + doxycycline 3.0 μg/ml) | growth in MIC/MLC chart ([3]; analog 6.25 μg/ml + doxycycline […]) | growth in MIC/MLC chart ([3]; analog 12.5 μg/ml + doxycycline 2.8 μg/ml) | growth in MIC/MLC chart ([3]; analog 12.5 μg/ml + doxycycline […]) | growth in MIC/MLC chart ([3]; analog 25 μg/ml + doxycycline 2.4 μg/ml) | growth in MIC/MLC chart ([3]; analog 25 μg/ml + doxycycline […]) | growth in MIC/MLC chart ([3]; analog 50 μg/ml + doxycycline 1.56 μg/ml) | growth in MIC/MLC chart ([3]; analog 50 μg/ml + doxycycline .78 μg/ml) | growth in MIC/MLC chart [3, 7] | growth in MIC/MLC chart [3, 8] | growth in MIC/MLC chart [3, 9] | growth in MIC/MLC chart ([3]; analog .195 μg/ml + doxycycline 12.5 μg/ml) | growth in MIC/MLC chart ([3]; analog .195 μg/ml + doxycycline 25.0 μg/ml) | growth in MIC/MLC chart ([3]; analog .39 μg/ml + doxycycline 1.56 μg/ml) | growth in MIC/MLC chart ([3]; analog .39 μg/ml + doxycycline 3.12 μg/ml) | growth in MIC/MLC chart ([3]; analog .39 μg/ml + doxycycline 6.25 μg/ml) | growth in MIC/MLC chart ([3]; analog .39 μg/ml + doxycycline 12.5 μg/ml) | growth in MIC/MLC chart ([3]; analog .78 μg/ml + doxycycline 1.56 μg/ml) | growth in MIC/MLC chart ([3]; analog .78 μg/ml + doxycycline 3.12 μg/ml) | growth in MIC/MLC chart ([3]; analog .78 μg/ml + doxycycline 6.23 μg/ml)
.4 µg/mL: MIC [4] | MIC [5]
20 µg/mL: MIC [1]
6.25 μg/ml: MLC of analog in combination ([3]; with 5.9 μg/ml of doxycycline (Chart 8A))
↓: growth in MIC/MLC chart ([3]; analog .39 μg/ml + doxycycline 24.9 μg/ml)

Source: patent US7732429B2 (Trustees of Tufts College, priority 1994, dated 2010)
